This passage reports Papp and microsomal CLint results from patent US9409952B2, “Peptide-compound cyclization method” (Chugai Seiyaku Kabushiki Kaisha, priority 2011, dated 2016).

Where two headings read alike, the source gives them in different places. Starred links: 1 amine or outer side, 2 acyl side, 3 side chain; linkers in the order of their positions; H or OH if unused. Positions of bridges follow the written chain, without caps; N, C: chain ends. Non-standard residues stand in square brackets, D forms with d. Residues, ends and D or L forms follow the SMILES beside them. ξ: configuration not given here. *: point of attachment. NMeF = CN[C@@H](Cc1ccccc1)C(=O)O; NMeI = CC[C@H](C)[C@H](NC)C(=O)O; NMeβAla = CN(CCC(=O)[*:2])[*:1]; NMeξIle = CC[C@H](C)C(NC)C(=O)O; NMeL = CN[C@@H](CC(C)C)C(=O)O; ξNMeF = CNC(Cc1ccccc1)C(=O)O; NMeV = CN[C@H](C(=O)O)C(C)C; NMeA = CN[C@@H](C)C(=O)O; Piperidide = C1CCN(*)CC1; dNMeA = CN[C@H](C)C(=O)O; β3hA = C[C@H](N)CC(=O)O; Sar = CNCC(=O)O; tBu = CC(C)(C)*

The nature of data set [1]: PAMPA (parallel artificial membrane permeability assay). In kind it is in vitro ADME. As to conditions: PAMPA. In outline:
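Artificial membrane was 10% (w/v) egg lecithin plus 0.5% (w/v) cholesterol in dodecane on a PVDF filter. A 10 mM DMSO stock was added at 0.5% (v/v) to donor buffer (50 mM MOPSO, pH 6.5, 5.0% glycocholic acid). After 18 h at 37 °C, LC/MS or LC/UV gave donor and acceptor levels for Pe.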
(PAMPA measures passive passage across an artificial lipid membrane.)

Data set [2] can be described thus: Metabolic stability in human hepatic microsome. In kind it is in vitro ADME. Particulars: microsomes.
The mark [3] stands for this setting: membrane permeation rate (Pe), 50 mM MOPSO buffer pH 6.5 with 5.0% glycocholic acid, 37° C., 18 hours, read-out: iPAMPA Pe.
[4] abbreviates: pH 7.4, human hepatic microsome, NADPH(+), read-out: CL NADPH(+).

Consider `CC[C@H](C)[C@H]1C(=O)N[C@@H](COC(C)(C)C)C(=O)N(C)[C@@H](C(C)C)C(=O)N[C@@H](C)CC(=O)N(C)[C@@H](CC(C)C)C(=O)N(C)[C@@H](Cc2ccccc2)C(=O)N[C@@H](CC(C)C)C(=O)N(C)[C@@H](CC(C)C)C(=O)N[C@@H]([C@@H](C)O)C(=O)N(C)CC(=O)N1C` [DP-821] (cyclo(L[NMeL]T[Sar][NMeI]S(tBu)[NMeV][β3hA][NMeL][NMeF])), for which, in data set [1] (setting [3]), the Papp at 18 hours, 50 µM stood at 62 ×10⁻⁶ cm/s. Further, the microsomal CLint at 1 uM in data set [2] (setting [4]) was 547 µL/min/mg.
For `CC(C)C[C@@H]1NC(=O)[C@H](Cc2ccccc2)N(C)C(=O)[C@H](C)N(C)C(=O)C[C@@H](C(=O)N2CCCCC2)NC(=O)[C@H](Cc2ccccc2)N(C)C(=O)[C@H](C)N(C)C(=O)[C@H]([C@@H](C)O)NC(=O)CN(C)C(=O)[C@H](C)N(C)C(=O)[C@H](C)NC(=O)[C@H](C(C)C)N(C)C(=O)[C@H](CC(C)C)N(C)C1=O` [DP-469] ([NMeA][NMeF]L[NMeL][NMeV]A[NMeA][Sar]T[NMeA][NMeF]D-Piperidide; lactam N-12) the same measures were 14 ×10⁻⁶ cm/s and 23 µL/min/mg.
For `CC[C@H](C)[C@@H]1NC(=O)[C@H](Cc2ccccc2)N(C)C(=O)CN(C)C(=O)C[C@@H](C(=O)N2CCCCC2)NC(=O)[C@H](C(C)C)N(C)C(=O)[C@H](COC(C)(C)C)NC(=O)[C@H](CC(C)C)N(C)C(=O)[C@H](Cc2ccccc2)N(C)C(=O)CN(C)C(=O)[C@H]([C@@H](C)O)NC(=O)[C@H](CC(C)C)N(C)C1=O` [DP-168] ([Sar][NMeF]I[NMeL]T[Sar][NMeF][NMeL]S(tBu)[NMeV]D-Piperidide; lactam N-11) the same measures were 23 ×10⁻⁶ cm/s and 85 µL/min/mg.
With `CC(C)C[C@H]1C(=O)N[C@@H]([C@@H](C)O)C(=O)N[C@H](C(=O)N(C)[C@@H](Cc2ccccc2)C(=O)N(C)[C@@H](Cc2ccccc2)C(=O)N[C@@H](C)C(=O)N2CCCCC2)CC(=O)N(C)[C@@H](C)C(=O)N(C)CC(=O)N(C)[C@@H](Cc2ccccc2)C(=O)N(C)[C@@H](C)C(=O)N[C@@H](C)C(=O)N(C)[C@@H](C)C(=O)N1C` [DP-406] ([NMeA][Sar][NMeF][NMeA]A[NMeA][NMeL]TD[NMeF][NMeF]A-Piperidide; lactam N-9), the Papp at 18 hours, 50 µM in data set [1] (setting [3]) came out at 4.4 ×10⁻⁶ cm/s. The microsomal CLint at 1 uM in data set [2] (setting [4]) came to 11 µL/min/mg.
For `CC[C@H](C)[C@@H]1NC(=O)[C@H](CC(C)C)N(C)C(=O)[C@H](C(C)C)N(C)C(=O)CCN(C)C(=O)C[C@@H](C(=O)N(C)[C@@H](Cc2ccccc2)C(=O)N[C@@H](C)C(=O)N2CCCCC2)NC(=O)[C@H]([C@@H](C)O)NC(=O)[C@H](Cc2ccccc2)N(C)C(=O)[C@H](C)N(C)C(=O)[C@H](CC(C)C)NC(=O)[C@H](C(C)C)N(C)C1=O` [DP-447] ([NMeβAla][NMeV][NMeL]I[NMeV]L[NMeA][NMeF]TD[NMeF]A-Piperidide; lactam N-10) the same measures were 33 ×10⁻⁶ cm/s and 159 µL/min/mg.
`CC(C)C[C@@H]1NC(=O)[C@H]([C@@H](C)O)NC(=O)[C@@H]2CCCN2C(=O)[C@H](Cc2ccccc2)NC(=O)[C@H](COC(C)(C)C)NC(=O)[C@H](CC(C)C)N(C)C(=O)[C@H](Cc2ccccc2)NC(=O)[C@@H](C)N(C)C(=O)C[C@H](C)NC(=O)CNC(=O)[C@H](C)N(C)C(=O)[C@H](C)N(C)C1=O` [DP-752] (cyclo(F[NMeL]S(tBu)FPTL[NMeA][NMeA]G[β3hA][dNMeA])) showed a Papp at 18 hours, 50 µM in data set [1] (pH 6.5) of 6.2 ×10⁻⁶ cm/s. This compound registered a microsomal CLint at 1 uM in data set [2] (human, pH 7.4, CL NADPH(+)) of 33 µL/min/mg.
In the case of `CC(C)C[C@@H]1NC(=O)[C@H]([C@@H](C)O)NC(=O)[C@@H]2CCCN2C(=O)CNC(=O)[C@H](CC(C)C)N(C)C(=O)[C@H](Cc2ccccc2)NC(=O)[C@H](CC(C)C)N(C)C(=O)[C@H](CC(C)C)N(C)C(=O)[C@H](Cc2ccccc2)NC(=O)CN(C)C(=O)C[C@@H](C(=O)N(C)C(Cc2ccccc2)C(=O)N[C@@H](C)C(=O)N2CCCCC2)NC1=O` (stereo partly shown) [DP-185] ([Sar]F[NMeL][NMeL]F[NMeL]GPTLD[ξNMeF]A-Piperidide; lactam N-11), the Papp at 18 hours, 50 µM in data set [1] (setting [3]) amounted to 46 ×10⁻⁶ cm/s. Besides, the microsomal CLint at 1 uM in data set [2] (setting [4]) came to 19 µL/min/mg.
Consider `CC(C)C[C@H]1C(=O)N[C@@H]([C@@H](C)O)C(=O)N[C@@H](COC(C)(C)C)C(=O)N[C@H](C(=O)N2CCCCC2)CC(=O)N(C)CCC(=O)N(C)[C@@H](Cc2ccccc2)C(=O)N(C)[C@@H](CC(C)C)C(=O)N1C` [DP-747] ([NMeβAla][NMeF][NMeL][NMeL]TS(tBu)D-Piperidide; lactam N-7), for which the Papp at 18 hours, 50 µM in data set [1] (setting [3]) was 20 ×10⁻⁶ cm/s. Moreover, the microsomal CLint at 1 uM in data set [2] (setting [4]) amounted to 248 µL/min/mg.
For `CC[C@H](C)[C@@H]1NC(=O)[C@H](CC(C)C)NC(=O)[C@H](CC(C)C)N(C)C(=O)[C@H](CC(C)C)NC(=O)[C@H](CC(C)C)NC(=O)[C@H](Cc2ccccc2)NC(=O)[C@H](CC(C)C)NC(=O)[C@H](Cc2ccccc2)NC(=O)[C@H]([C@@H](C)O)NC(=O)CCN(C)C(=O)C[C@@H](C(=O)N2CCCCC2)NC1=O` [DP-323] ([NMeβAla]TFLFLL[NMeL]LID-Piperidide; lactam N-11), in that order: 7.8 ×10⁻⁶ cm/s and 182 µL/min/mg.
For `CC(C)[C@@H]1NC(=O)[C@H](C)N(C)C(=O)[C@H](Cc2ccccc2)N(C)C(=O)[C@H](C)N(C)C(=O)[C@H]([C@@H](C)O)NC(=O)[C@H](C)N(C)C(=O)[C@H](C)N(C)C(=O)C[C@@H](C(=O)N(C)[C@@H](Cc2ccccc2)C(=O)N(C)[C@@H](Cc2ccccc2)C(=O)N[C@@H](C)C(=O)N2CCCCC2)NC(=O)[C@H](C)N(C)C(=O)[C@H](C)N(C)C1=O` [DP-460] ([NMeA][NMeA]T[NMeA][NMeF][NMeA]V[NMeA][NMeA]D[NMeF][NMeF]A-Piperidide; lactam N-10) the same measures were 5.1 ×10⁻⁶ cm/s and 17 µL/min/mg.
As to `CC[C@H](C)[C@@H]1NC(=O)[C@H](C)N(C)C(=O)[C@H](CC(C)C)N(C)C(=O)[C@H](Cc2ccccc2)NC(=O)[C@H](CC(C)C)N(C)C(=O)[C@H](CC(C)C)N(C)C(=O)[C@H](C)N(C)C(=O)[C@H](Cc2ccccc2)N(C)C(=O)[C@@H](C)N(C)C(=O)C[C@@H](C(=O)N[C@H](C(=O)N2CCCCC2)[C@@H](C)CC)NC(=O)[C@H](CC(C)C)N(C)C(=O)[C@H]([C@@H](C)O)NC(=O)[C@H](CO)NC1=O` [DP-956] ([dNMeA][NMeF][NMeA][NMeL][NMeL]F[NMeL][NMeA]IST[NMeL]DI-Piperidide; lactam N-13), the Papp at 18 hours, 50 µM in data set [1] (setting [3]) worked out at 0.58 ×10⁻⁶ cm/s. The microsomal CLint at 1 uM in data set [2] (setting [4]) worked out at 40 µL/min/mg.
As to `CC(C)C[C@H]1C(=O)NCC(=O)N[C@H](C(=O)N2CCCCC2)CC(=O)N[C@H](C(C)C)C(=O)N[C@@H]([C@@H](C)O)C(=O)N(C)[C@@H](C)C(=O)N(C)[C@@H](Cc2ccccc2)C(=O)N(C)[C@@H](Cc2ccccc2)C(=O)N[C@@H](COC(C)(C)C)C(=O)N1C` [DP-176] ([dV]T[NMeA][NMeF][NMeF]S(tBu)[NMeL]GD-Piperidide; lactam N-9), the Papp at 18 hours, 50 µM in data set [1] (setting [3]) was found to be 25 ×10⁻⁶ cm/s. The microsomal CLint at 1 uM in data set [2] (setting [4]) is 47 µL/min/mg.
Take `CC(C)C[C@H](NC(=O)[C@@H](NC(=O)[C@@H]1CCCN1C(=O)[C@@H]1CC(=O)N[C@H](C)C(=O)N(C)[C@@H](C)C(=O)N(C)[C@@H](Cc2ccccc2)C(=O)N(C)[C@@H](CC(C)C)C(=O)N[C@@H]([C@@H](C)O)C(=O)N(C)CC(=O)N(C)[C@@H](CC(C)C)C(=O)N[C@@H](COC(C)(C)C)C(=O)N(C)[C@@H](CC(C)C)C(=O)N1)C(C)C)C(=O)N1CCCCC1` [DP-579] ([dA][NMeA][NMeF][NMeL]T[Sar][NMeL]S(tBu)[NMeL]DPVL-Piperidide; lactam N-10): the Papp at 18 hours, 50 µM in data set [1] (setting [3]) amounted to 24 ×10⁻⁶ cm/s. Besides, the microsomal CLint at 1 uM in data set [2] (setting [4]) is 19 µL/min/mg.
For the compound `CC[C@H](C)[C@H]1C(=O)N[C@@H](C)C(=O)N(C)[C@@H](CC(C)C)C(=O)N(C)[C@@H](Cc2ccccc2)C(=O)N[C@@H]([C@@H](C)O)C(=O)N(C)[C@@H](Cc2ccccc2)C(=O)N(C)[C@@H](CC(C)C)C(=O)N(C)[C@@H](CC(C)C)C(=O)N[C@H](C(=O)N2CCCCC2)CC(=O)N(C)CC(=O)N1C` [DP-147] ([Sar][NMeI]A[NMeL][NMeF]T[NMeF][NMeL][NMeL]D-Piperidide; lactam N-10), the Papp at 18 hours, 50 µM in data set [1] (pH 6.5) came out at 29 ×10⁻⁶ cm/s. In addition, in data set [2] (human, pH 7.4, CL NADPH(+)), the microsomal CLint at 1 uM amounted to 147 µL/min/mg.
On to `CC(C)C[C@H]1C(=O)N[C@H](C(=O)N(C)[C@@H](Cc2ccccc2)C(=O)N[C@@H](C)C(=O)N2CCCCC2)CC(=O)N(C)[C@@H](C)C(=O)N[C@@H]([C@@H](C)O)C(=O)N(C)[C@@H](C)C(=O)N(C)[C@@H](CC(C)C)C(=O)N[C@@H](C(C)C)C(=O)N(C)[C@@H](Cc2ccccc2)C(=O)N[C@@H](Cc2ccccc2)C(=O)N1C` [DP-386] ([NMeA]T[NMeA][NMeL]V[NMeF]F[NMeL]D[NMeF]A-Piperidide; lactam N-9), for which the Papp at 18 hours, 50 µM in data set [1] (setting [3]) was determined as 54 ×10⁻⁶ cm/s. Moreover, the microsomal CLint at 1 uM in data set [2] (setting [4]) came to 222 µL/min/mg.
Turning to `CC(C)C[C@@H]1NC(=O)C[C@@H](C(=O)N2CCCCC2)NC(=O)[C@H](COC(C)(C)C)NC(=O)[C@H]([C@@H](C)O)NC(=O)[C@H](Cc2ccccc2)N(C)C(=O)[C@H](CC(C)C)N(C)C(=O)CN(C)C1=O` [DP-718] (L[Sar][NMeL][NMeF]TS(tBu)D-Piperidide; lactam N-7), the Papp at 18 hours, 50 µM in data set [1] (setting [3]) was 17 ×10⁻⁶ cm/s. In addition, the microsomal CLint at 1 uM in data set [2] (setting [4]) was 99 µL/min/mg.
In data set [1] (pH 6.5), `CC[C@H](C)C1C(=O)N[C@H](C(=O)N2CCCCC2)CC(=O)N(C)CC(=O)N(C)CC(=O)N[C@@H]([C@@H](C)O)C(=O)N(C)[C@@H](Cc2ccccc2)C(=O)N(C)[C@@H](CC(C)C)C(=O)N[C@@H](COC(C)(C)C)C(=O)N(C)[C@@H](CC(C)C)C(=O)N1C` (stereo partly drawn) [DP-60] ([Sar][Sar]T[NMeF][NMeL]S(tBu)[NMeL][NMeξIle]D-Piperidide; lactam N-9) came in with a Papp at 18 hours, 50 µM of 42 ×10⁻⁶ cm/s. In data set [2] (human, pH 7.4, CL NADPH(+)), this compound displayed a microsomal CLint at 1 uM of 145 µL/min/mg.
